Data published in patent publication US5043332A, “Novel 11β-substituted -19-nor-steriods” (priority 1981, dated 1991).

Key:
[1] = molecular target: T1, Gluocorticoid receptor of thymus of rats (Rattus norvegicus, UniProt P06536); assay: Glucocorticoid receptor binding (displacement of tritiated dexamethasone); settings: for relative affinity of tieing (ARL), Glucocorticoid: second table; for affinity for glucocorticoid receptors (in words): conclusion
T1 construct: The thymus were removed and homogenized at 0° C; from tissue; host or cells: rat thymus, 105,000 g supernatant (adrenalectomized male Sprague-Dawley rats)
T1 sequence (P06536 1-795): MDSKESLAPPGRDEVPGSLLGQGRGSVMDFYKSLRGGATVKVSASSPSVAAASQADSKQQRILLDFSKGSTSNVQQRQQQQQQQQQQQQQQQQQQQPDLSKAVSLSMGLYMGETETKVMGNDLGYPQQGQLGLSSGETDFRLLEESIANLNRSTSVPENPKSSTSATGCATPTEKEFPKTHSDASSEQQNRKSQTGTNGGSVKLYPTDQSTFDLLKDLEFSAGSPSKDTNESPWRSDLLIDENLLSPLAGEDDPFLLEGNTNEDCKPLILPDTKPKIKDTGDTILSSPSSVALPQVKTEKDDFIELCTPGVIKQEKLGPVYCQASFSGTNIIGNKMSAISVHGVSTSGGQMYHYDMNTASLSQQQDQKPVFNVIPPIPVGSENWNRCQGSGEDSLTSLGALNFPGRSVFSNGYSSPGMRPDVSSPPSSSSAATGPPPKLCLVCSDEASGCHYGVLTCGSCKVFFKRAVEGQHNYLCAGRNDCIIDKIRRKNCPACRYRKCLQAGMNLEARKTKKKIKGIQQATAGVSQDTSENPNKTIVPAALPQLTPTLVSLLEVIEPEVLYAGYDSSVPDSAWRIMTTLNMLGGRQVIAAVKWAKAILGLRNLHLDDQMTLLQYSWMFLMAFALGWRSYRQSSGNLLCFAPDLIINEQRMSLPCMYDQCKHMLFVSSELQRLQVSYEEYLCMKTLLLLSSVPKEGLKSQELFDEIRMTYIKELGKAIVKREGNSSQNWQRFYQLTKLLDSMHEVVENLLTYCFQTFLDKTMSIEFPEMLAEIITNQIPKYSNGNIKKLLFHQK
Experimental: D. Gluocorticoid receptor of thymus of rats
Male Sprague-Dawley EPOS rats weighing 160 to 200 g were surrenalectomized and the animals were killed 4 to 8 days later. The thymus were removed and homogenized at 0° C. in a buffered TS solution of 10 mM, Tris, 0.25M of Saccharose, 2 mM of dithiothreitol HCl for a pH of 7.4 using a polytetrafluoroethylene-glass Potter at a rate of 1 g of tissue per 10 ml of TS. […] The concentration of tied tritiated dexamethasone (B) was measured for each incubate by the adsorption on carbon-dextran technique.
(§1) The calculation of the relative affinity of […] (ARL) was identical for all of the above receptor tests. One traced the following two curves: the percentage of tied tritiated hormone B/T as a function of the logarithm of the cold hormone concentration and B/T as a function of the logarithm of the concentration of the cold test product. One determined the line of the equation. [formula]
(§2) The intersection of the I50 line and the curves permits one to determine the concentrations of the cold hormone of the reference (CH) and the cold test compound (CX) which inhibit by 50% the tieing of tritiated hormone with the receptor. The relative affinity of tieing (ARL) of the test product was determined by the equation: [formula]

[2] = molecular target: T2, Androgen receptor of prostate of rats (Rattus norvegicus, UniProt P15207); assay: Androgen receptor binding (displacement of tritiated product P); settings: for relative affinity of tieing (ARL), Androgen: second table, incubation 24 H at 0° C.; for affinity for androgen receptors (in words): conclusion
T2 construct: The prostates were removed, weighed and homogenized at 0° C; from tissue; host or cells: rat prostate, 105,000 g supernatant (castrated male Sprague-Dawley rats)
T2 sequence (P15207 1-902): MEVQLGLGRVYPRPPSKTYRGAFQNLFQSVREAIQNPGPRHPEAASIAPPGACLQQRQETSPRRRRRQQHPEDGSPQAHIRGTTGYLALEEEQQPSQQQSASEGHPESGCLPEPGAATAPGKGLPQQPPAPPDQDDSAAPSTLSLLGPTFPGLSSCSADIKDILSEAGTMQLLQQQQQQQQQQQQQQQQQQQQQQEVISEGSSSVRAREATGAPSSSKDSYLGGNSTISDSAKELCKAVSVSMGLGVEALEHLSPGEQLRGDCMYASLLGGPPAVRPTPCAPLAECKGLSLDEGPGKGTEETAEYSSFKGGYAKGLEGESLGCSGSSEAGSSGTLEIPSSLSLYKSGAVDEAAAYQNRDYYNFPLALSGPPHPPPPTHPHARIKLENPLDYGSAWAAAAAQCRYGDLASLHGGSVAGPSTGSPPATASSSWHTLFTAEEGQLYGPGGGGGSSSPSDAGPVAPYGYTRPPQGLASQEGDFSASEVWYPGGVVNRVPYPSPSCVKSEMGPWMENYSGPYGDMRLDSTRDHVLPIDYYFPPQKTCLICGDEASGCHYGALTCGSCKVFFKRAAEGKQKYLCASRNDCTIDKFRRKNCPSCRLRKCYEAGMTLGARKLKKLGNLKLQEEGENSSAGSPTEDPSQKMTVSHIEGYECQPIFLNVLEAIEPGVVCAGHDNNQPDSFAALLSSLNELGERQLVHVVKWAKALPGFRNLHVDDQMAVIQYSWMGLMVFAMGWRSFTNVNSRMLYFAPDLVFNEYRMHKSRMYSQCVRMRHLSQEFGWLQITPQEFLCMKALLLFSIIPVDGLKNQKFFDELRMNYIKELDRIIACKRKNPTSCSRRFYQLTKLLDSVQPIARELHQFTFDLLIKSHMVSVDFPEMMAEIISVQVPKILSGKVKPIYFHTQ
Experimental: B. Androgen receptor of prostate of rats
Male Sprague-Dawley EPOS rats weighing of 160 to 200 g were castrated and 24 hours later, the animals were killed. The prostates were removed, weighed and homogenized at 0° C. with a polytetrafluoroethylene-glass Potter with a buffered TS solution (Tris, 10 mM, 0.25M Saccharose, HCl-pH of 7.4) using 1 g of tissue per 5 ml of TS. The homogenate was then ultracentrifuged at 105,000 g for 60 […] (T) of product P or 17α-methyl-Δ^4,9,11 -estratriene-17β-ol-3-one in the presence of increasing concentration (0-1,000×10^-9 M) of either cold P, cold testosterone or the test compound. The concentration of tied tritiated (B) was measured for each incubate by the technique of adsorption on carbon-dextran.
as §1, §2

[3] = tested on: thymocytes of surrenalectomized rats; assay: Antiglucocorticoidal activity, incorporation of tritiated uridine in thymocytes; assay type: cell-based; settings: for inhibition at 1 µM / inhibition at 0.1 µM / inhibition at 0.01 µM: Rattus norvegicus, Thymocyte, read-out: % of inhibition of effect of Dexamethasone; for inhibition at 1 µM / inhibition at 0.1 µM / inhibition at 0.01 µM / % of inhibition of effect of Dexamethasone (symbol): second table; for inhibition at 1 µM / % of inhibition of effect of Dexamethasone (symbol): 5 × 10^-8 M dexamethasone + test product 10^-6 M; for inhibition at 0.1 µM: 5 × 10^-8 M dexamethasone + test product 10^-7 M; for inhibition at 0.01 µM: 5 × 10^-8 M dexamethasone + test product 10^-8 M; for opposition to the effect of dexamethasone on tritiated uridine incorporation (in words): with 5×10^-8 M dexamethasone

Row | relative affinity of tieing (ARL), Glucocorticoid ([1]; incubation 4 H at 0° C.) | relative affinity of tieing (ARL), Glucocorticoid ([1]; incubation 24 H at 0° C.) | relative affinity of tieing (ARL), Androgen [2] | affinity for glucocorticoid receptors (in words) [1] | affinity for androgen receptors (in words) [2] | SMILES | inhibition at 1 µM [3] | inhibition at 0.1 µM [3] | inhibition at 0.01 µM [3] | opposition to the effect of dexamethasone on tritiated uridine incorporation (in words) [3] | % of inhibition of effect of Dexamethasone (symbol) [3]
1 | 9 | 14 | 9,8 |  |  | C[C@]12C[C@H](c3ccc([N+](C)(C)[O-])cc3)C3=C4CCC(=O)C=C4CC[C@H]3[C@@H]1CC[C@@]2(O)C#CCl [Example 26, N-oxide of 11β-[4-(N,N-dimethylamino)-phenyl]-21-chloro-19-nor-17α-Δ^4,9-pregnadiene-20-yne-17β-ol-3-one] | 75% | 34% | 14% | opposed this effect | 
2 |  |  |  | very remarkable affinity | slightly moderate affinity | CC#C[C@]1(O)CC[C@H]2[C@@H]3CCC4=CC(=O)[C@H](C)CC4=C3[C@@H](c3ccc(N(C)C)cc3)C[C@@]21C [Example 5, 2α-methyl-11β-(4-dimethylaminophenyl)-17α-(prop-1-ynyl)-Δ^4,9-estradiene-17β-ol-3-one] |  |  |  | opposed this effect | 
3 | 212 | 167 | 14,7 |  |  | C=C(C)C#C[C@]1(O)CC[C@H]2[C@@H]3CCC4=CC(=O)CCC4=C3[C@@H](c3ccc(N(C)C)cc3)C[C@@]21C [Example 23, 11β-[4-(N,N-dimethylamino)-phenyl]-23-methyl-19,21-dinor-17α-Δ^4,9,23-cholatriene-20-yn-17β-ol-3-one] |  | 53% | 22% | opposed this effect | * (A dose of 10^-6 M inhibited totally the effect of dexamethasone)
4 | 171 | 118 | 7,3 |  |  | C#C[C@@]1(O)CC[C@H]2[C@@H]3CCC4=CC(=O)CCC4=C3[C@@H](c3ccc(N(C)C)cc3)C[C@@]21C [Example 21, 11β-[4-(N,N-dimethylamino)-phenyl]-17β-ethynyl-Δ^4,9-estradiene-17α-ol-3-one] | 83% | 15% | 5% | opposed this effect | 
5 | 254 | 292 | 32 | very remarkable affinity | slightly moderate affinity | CN(C)c1ccc([C@H]2C[C@@]3(C)[C@@H](CC[C@@]3(O)C#CCl)[C@@H]3CCC4=CC(=O)CCC4=C32)cc1 [Example 25, 11β-[4-(N,N-dimethylamino)-phenyl]-21-chloro-19-nor-17α-Δ^4,9-pregnadiene-20-yne-17β-ol-3-one] |  | 85% | 57% | opposed this effect | * (A dose of 10^-6 M inhibited totally the effect of dexamethasone)
6 | 279 | 235 | 68 | very remarkable affinity | slightly moderate affinity | C#C[C@]1(O)CC[C@H]2[C@@H]3CCC4=CC(=O)CCC4=C3[C@@H](c3ccc(N(C)C)cc3)C[C@@]21C [Example 32, 11β-[4-(N,N-dimethylamino)-phenyl]-17α-ethynyl-Δ^4,9-estradiene-17β-ol-3-one] |  |  |  |  | 

Row | SMILES | relative affinity of tieing (ARL), Glucocorticoid ([1]; incubation 4 H at 0° C.) | relative affinity of tieing (ARL), Glucocorticoid ([1]; incubation 24 H at 0° C.) | relative affinity of tieing (ARL), Androgen [2] | affinity for glucocorticoid receptors (in words) [1] | affinity for androgen receptors (in words) [2] | inhibition at 1 µM [3] | inhibition at 0.1 µM [3] | inhibition at 0.01 µM [3] | opposition to the effect of dexamethasone on tritiated uridine incorporation (in words) [3] | % of inhibition of effect of Dexamethasone (symbol) [3]
7 | C=CC[C@]1(O)CC[C@H]2[C@@H]3CCC4=CC(=O)CCC4=C3[C@@H](c3ccc(N(C)C)cc3)C[C@@]21C [Example 37, 11β-[4-(N,N-dimethylamino)-phenyl]-17α-(prop-2-enyl)-Δ^4,9-estradien-17β-ol-3-one] | 178 | 221 | 8 | very remarkable affinity | slightly moderate affinity |  |  |  | opposed this effect | * (A dose of 10^-6 M inhibited totally the effect of dexamethasone)
8 | CN(C)c1ccc([C@H]2C[C@@]3(C)[C@@H](CC[C@@]3(O)C#C[Si](C)(C)C)[C@@H]3CCC4=CC(=O)CCC4=C32)cc1 [Example 44, 11β-[4-(N,N-dimethylamino)-phenyl]-21-trimethylsilyl-19-nor-17α-Δ^4,9-pregnadiene-20-yne-17β-ol-3-one] | 79 | 104 | 4,6 |  |  |  |  |  |  | 
9 | C[C@]12C[C@H](c3ccc([N+](C)(C)[O-])cc3)[C@]34O[C@]35CCC(=O)C=C5CC[C@H]4[C@@H]1CC[C@@]2(O)C#CCl [Example 27, N-oxide of 11β-[4-(N,N-dimethylamino)-phenyl]-9α,10α-epoxy-21-chloro-19-nor-17α-Δ^4-pregnene-20-yne-17β-ol-3-one] | 5,3 | 6,2 | 2,8 |  |  |  |  |  |  | 
